Measurements from patent US12661343B2, “Compositions containing nicotinamide and vitamin B6 and methods of using such compositions for promoting muscle growth” (SOCIETE DES PRODUITS NESTLE S.A., priority 2020, dated 2026).

System: Human primary myoblasts
Experiment: Myogenic amplification and commitment of muscle stem cells (Pax7/MyoD staining, image quantification)
Assay type: cell-based
Conditions: donors 1 and 2 pooled, dose response, 96 hours, normalized to total cell number, control DMSO 1%; for proportion of MyoD+ cells (differentiating), fold change compared to the control condition: FIG. 1B/2B
Description: Human Skeletal Muscle Myoblasts were purchased from Lonza (https://bioscience.lonza.com). These cells were isolated from the upper arm or leg muscle tissue of normal donors and used after the second passage. Several donors were tested to ensure cell viability and purity before selecting the final donors, which are a person (refer thereafter as Donor 1), a person (refer thereafter as Donor 2) and a person (refer thereafter as Donor 3). Human primary myoblasts were seeded in 384 well plates at a density of 1′000 cells per well in skeletal muscle growth medium (SKM-M, AMSbio). For treatment, compounds were directly added to the myoblast cultures 16 hours after initial plating. All cultures were then grown for 96 hours. Cells were stained for Pax7 and MyoD expression using antibodies directed against Pax7 and MyoD and counterstained with Hoechst 33342 to visualize cell nuclei. Pax7+ cells are defined as cells that express Pax7 regardless of MyoD expression. […] Image acquisition was performed using the ImageXpress (Molecular Devices) platform. Custom module analysis based on Multi-Wavelength Cell Scoring of the MetaXpress software was used for quantification. *, **, ***, **** indicates difference from the control, One-way ANOVA, with p<0.05, p<0.01, p<0.001, p<0.0001, respectively. Data are presented as Mean+/−SEM. Human primary myoblasts from different donors (donor 1, donor 2 or donor 3) were seeded in 384 well plates at a density of 1′000 cells per well in skeletal muscle growth medium (SKM-M, AMSbio). For treatment, compounds were directly added to the myoblast cultures 16 hours after initial plating. All cultures were then grown for 96 hours. Cells were stained for Pax7 and MyoD expression using antibodies directed against Pax7 and MyoD and counterstained with Hoechst 33342 to visualize cell nuclei. Pax7+ cells are defined as cells that express Pax7 regardless of MyoD expression. […] Image acquisition was performed using the ImageXpress (Molecular Devices) platform. Custom module analysis based on Multi-Wavelength Cell Scoring of the MetaXpress software was used for quantification. […]

With `Cc1ncc(CO)c(CO)c1O` [Pyridoxine] the “proportion of MyoD+ cells (differentiating), fold change compared to the control condition” value was “increasing the proportion of differentiating (MyoD+) cells in a dose dependent manner”.
For `NC(=O)c1cccnc1` [Nicotinamide], the “proportion of Pax7+ cells (amplifying), fold change compared to the control condition” value (FIG. 1A/2A) was “increasing the proportion of both amplifying (Pax7+) and differentiating (MyoD+) cells in a dose dependent manner” and the “proportion of MyoD+ cells (differentiating), fold change compared to the control condition” value was “increasing the proportion of both amplifying (Pax7+) and differentiating (MyoD+) cells in a dose dependent manner”.
